Data: ChEMBL document CHEMBL1201862, “PubChem BioAssay data set” (2004)
Active and inactive are the calls of the source.

Legend:
Type in all cases: functional
[1] = target: T1, Microphthalmia-associated transcription factor (Homo sapiens, UniProt O75030); assay: reducers of TRPM1 reporter luminescence, concentration series – cell-based, SK-MEL-5, cherry-picked, set 3, MITF inhibitor project, dose response (AID 493073);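 note: SK-MEL-5 melanoma cells with luciferase driven by the MITF target TRPM1 promoter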
T1 sequence (O75030 whole entry): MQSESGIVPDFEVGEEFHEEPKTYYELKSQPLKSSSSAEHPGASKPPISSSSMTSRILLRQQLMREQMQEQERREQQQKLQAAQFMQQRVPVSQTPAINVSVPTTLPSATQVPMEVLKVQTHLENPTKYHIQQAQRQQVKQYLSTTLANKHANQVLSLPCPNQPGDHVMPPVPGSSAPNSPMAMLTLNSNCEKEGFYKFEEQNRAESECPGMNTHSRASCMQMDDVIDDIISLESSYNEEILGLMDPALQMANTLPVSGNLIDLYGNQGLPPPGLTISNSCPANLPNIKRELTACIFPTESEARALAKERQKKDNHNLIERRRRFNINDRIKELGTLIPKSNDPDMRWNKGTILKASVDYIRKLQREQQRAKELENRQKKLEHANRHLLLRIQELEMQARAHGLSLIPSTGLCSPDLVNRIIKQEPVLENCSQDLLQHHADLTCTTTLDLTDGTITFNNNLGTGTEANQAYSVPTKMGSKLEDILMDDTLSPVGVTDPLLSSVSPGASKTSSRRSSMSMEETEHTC

[2] = target: T2, Replicative DNA helicase DnaB (Mycobacterium tuberculosis, UniProt P9WMR3); assay: DnaB intein splicing inhibitors, dose response, biochemical, cell-free fluorescence (AID 449749)
T2 sequence (P9WMR3 whole entry): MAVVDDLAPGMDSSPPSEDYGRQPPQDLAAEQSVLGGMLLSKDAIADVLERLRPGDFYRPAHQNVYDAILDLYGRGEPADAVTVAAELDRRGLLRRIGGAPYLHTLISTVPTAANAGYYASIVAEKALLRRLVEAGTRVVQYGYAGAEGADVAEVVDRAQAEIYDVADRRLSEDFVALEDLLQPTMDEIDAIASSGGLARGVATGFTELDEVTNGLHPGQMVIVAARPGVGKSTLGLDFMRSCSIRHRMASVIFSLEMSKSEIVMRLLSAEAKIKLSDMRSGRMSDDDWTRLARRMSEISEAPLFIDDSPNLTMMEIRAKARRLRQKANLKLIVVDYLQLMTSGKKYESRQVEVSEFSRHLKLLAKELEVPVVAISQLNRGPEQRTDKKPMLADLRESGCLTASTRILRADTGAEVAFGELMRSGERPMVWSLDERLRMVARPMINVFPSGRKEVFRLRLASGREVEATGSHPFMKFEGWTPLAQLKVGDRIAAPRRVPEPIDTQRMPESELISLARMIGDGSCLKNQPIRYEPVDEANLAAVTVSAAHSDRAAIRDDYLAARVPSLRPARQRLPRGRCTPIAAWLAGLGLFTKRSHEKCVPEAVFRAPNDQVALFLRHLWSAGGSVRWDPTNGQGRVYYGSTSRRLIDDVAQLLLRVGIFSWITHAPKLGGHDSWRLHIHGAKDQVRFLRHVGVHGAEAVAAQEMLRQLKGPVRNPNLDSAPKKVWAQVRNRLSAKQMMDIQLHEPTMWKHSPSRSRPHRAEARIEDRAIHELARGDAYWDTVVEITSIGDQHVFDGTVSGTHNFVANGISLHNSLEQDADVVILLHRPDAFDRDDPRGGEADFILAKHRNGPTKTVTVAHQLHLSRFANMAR

Protein RecA = target: T3, Protein RecA (Mycobacterium tuberculosis, UniProt P9WHJ3); assay: Fluorescence Cell-Free Homogeneous Dose Retest to Identify Inhibitors of RecA-Intein Splicing Activity. [Related pubchem assays (depositor defined):AID2097, AID2223, AID489010, AID492950]
T3 sequence (P9WHJ3 whole entry): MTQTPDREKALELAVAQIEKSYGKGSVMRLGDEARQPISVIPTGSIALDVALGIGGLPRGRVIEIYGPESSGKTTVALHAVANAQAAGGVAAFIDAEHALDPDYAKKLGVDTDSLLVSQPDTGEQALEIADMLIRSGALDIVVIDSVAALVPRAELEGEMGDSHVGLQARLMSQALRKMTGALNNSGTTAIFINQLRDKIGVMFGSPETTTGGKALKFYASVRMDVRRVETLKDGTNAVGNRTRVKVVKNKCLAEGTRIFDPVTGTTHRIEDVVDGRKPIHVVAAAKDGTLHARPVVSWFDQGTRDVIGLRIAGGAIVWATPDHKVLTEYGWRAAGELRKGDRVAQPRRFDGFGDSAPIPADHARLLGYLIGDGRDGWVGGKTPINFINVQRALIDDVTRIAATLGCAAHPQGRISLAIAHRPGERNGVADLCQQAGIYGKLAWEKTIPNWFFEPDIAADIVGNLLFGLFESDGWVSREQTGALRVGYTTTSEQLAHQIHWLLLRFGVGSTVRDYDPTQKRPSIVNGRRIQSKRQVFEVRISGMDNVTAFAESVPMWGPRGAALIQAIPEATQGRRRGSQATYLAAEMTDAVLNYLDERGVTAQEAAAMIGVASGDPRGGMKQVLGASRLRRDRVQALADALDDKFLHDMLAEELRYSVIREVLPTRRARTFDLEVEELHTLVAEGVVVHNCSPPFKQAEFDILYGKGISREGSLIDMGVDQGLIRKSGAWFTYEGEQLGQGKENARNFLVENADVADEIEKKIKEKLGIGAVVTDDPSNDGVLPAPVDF

A-375 [3] = assay: MITF: Counter assay: A375 proliferation Measured in Cell-Based System Using Plate Reader - 2084-03_Inhibitor_Dose_DryPowder_Activity. [Related pubchem assays (depositor defined):AID488944]; settings: Homo sapiens
A-375 [4] = assay: proliferation inhibition in MITF-low A375 cells – cell-based, cherry-pick samples, set 2, counter-screen for MITF modulator project, dose response (AID 540335); settings: Homo sapiens

Cc1c(C#N)c(NC(=O)CCl)n(Cc2cccs2)c1C
active: AC50 [1] 7.07 µM | AC50 [2] 48 µM | EC50 (Protein RecA) 9.25 µM | AC50 (A-375 [3]) > 35 µM | AC50 (A-375 [4]) > 35 µM
